Assay results published in US11766404B2, “Bioavailable dithiocarbamate-metal complex particles, method of preparation and use thereof” (priority 2018, dated 2023).

Legend:
[1] = tested on: MDA-MB-231 breast cancer tumours subcutaneously xenografted into the SCID mice; assay: Growth of MDA-MB-231 tumours xenografted into SCID mice; assay type: in vivo; conditions: CuET 1 mg/kg i.p., 5 days ON and 2 days OFF
Description: To test directly effect of CuET-albumin nanoparticles we used MDA-MB-231 and AMO1 models. MDA-MB-231 was injected (5*10^6 cells were transplanted s.c.) to grow tumours in SCID mice (Anlab, CZ). Similarly, the AMO-1 xenografts were expanded in SCID mice. Each group consisted of 10 animals, each bearing two tumours. CuET was formulated as nanoparticulate system in mouse serum albumin according to Example 12 or as the neat CuET powder (obtained from TOKYO CHEMICAL […] CO., LTD.) dissolved in olive oil which is a standard formulation for non-polar compounds applied intraperitoneally in the mice experiments to final concentration 1 mg/ml. Olive oil alone and mouse serum albumin solutions were used as the vehicle controls. All solutions were applied intraperitoneally in a schedule 5 days ON and 2 days OFF, the CuET was applied in the final dose 1 mg per kg of body weight. All aspects of the animal studies met the accepted criteria for the care and experimental use of laboratory animals.

[2] = cited from earlier work

For `CCN(CC)C(=S)[S-].CCN(CC)C(=S)[S-].[Cu+2]` [neat CuET powder, bis(diethyldithiocarbamate)copper(II)], the “effect on tumour growth” value [1] is given as “Only the CuET-albumin nanoparticle shows significant effect” and the “solubility constant in water” value [2] is given as “in the range of nanograms per litre”.
